Reference: US12325862B2, “Compositions and methods for transgenic crops resistant to thaxtomins” (University of Florida Research Foundation, Inc., priority 2019, dated 2025)

What was measured:
[1] = system: radish seedlings; experiment: Radish seedling assay; type: in vivo; settings: for growth of radish seedlings on agar plate: after seven days, compared with negative control DMSO
Experimental: Serial concentrations of thaxtomins in DMSO were added into 20 mL of 1.5% warm agar solution with gentle agitation to the final concentrations range from 0 to 2 μM. DMSO was included as a negative control. The solution was then poured into the plate for solidification at room temperature for 30 min. Radish seeds (W. Atlee Burpee & Co., Warminster Township, Pennsylvania) were surface disinfested, pregerminated, and selected when the radicle was […] and just emerged from the seed coat. Six radish seedlings were equally located on the surface of each plate with the root ends all pointed in the same direction. Agar plates were covered and sealed with Parafilm®. The seedlings in the agar plates grew at room temperature under fluorescent lighting (12 h per day for 7 days), and then the seedling with average size of all seedlings in the same plate was selected for comparison.
A radish seedling assay was carried out to investigate the herbicidal activity of serial concentrations of 4-amino thaxtomin A (compound 5). The assay also included DMSO as negative control and thaxtomin A (1) as positive control. […] The diminished herbicidal activity is caused by the transformation of the nitro group of thaxtomin A (1) into the amine group.

[2] = NfsB enzymatic reaction, conditions optimized with thaxtomin A as substrate; type: biochemical
Experimental: Enzymatic reaction conditions were optimized with thaxtomin A as substrate. […] When coupled with a glucose dehydrogenase (GDH)- or phosphite dehydrogenase (PTDH)-based NADPH regeneration system, the enzyme at 10 μM achieved greater than 90% conversion of thaxtomin A (2 mM) at 37° C. in 8 hours. […] In addition, a crude extract of engineered thaxtomin producing strain Streptomyces albus-thx2 was prepared; the extract contained about 69% thaxtomin A based on HPLC analysis.

Question: With `CN1C(=O)[C@](O)(Cc2cccc(O)c2)N(C)C(=O)[C@@H]1Cc1c[nH]c2cccc(N)c12` [compound 5, 4-amino thaxtomin A] as the molecule, how does the “growth of radish seedlings on agar plate” value ([1]; 0.05 μM) read?
Answer: the same as the negative control DMSO

Question: And the “growth of radish seedlings on agar plate” value ([1]; 2.0 μM)?
Answer: the same as the negative control DMSO

Question: And the “herbicidal activity to radish seedlings” value ([1]; overall conclusion, 0.05 μM and 2.0 μM)?
Answer: minimal to no herbicidal activity

Question: Which “growth of radish seedlings on agar plate” value ([1]; 2.0 μM) does the source give for `CN1C(=O)[C@](O)(Cc2cccc(O)c2)N(C)C(=O)[C@@H]1Cc1c[nH]c2cccc([N+](=O)[O-])c12` [thaxtomin A, reference compound] here?
Answer: significantly inhibited

B1: NfsB: nitroreductase from Haemophilus influenzae (SEQ ID NO: 4), recombinant with C-terminal His6 tag (protein, listed as Haemophilus influenzae)
chain: MTQLTREQVLELFHQRSSTRYYDPTKKISDEDFECILECGRLSPSSVGSEPWKFLVIQNKTLREKMKPFSWGMINQLDNCSHLVVILAKKNARYDSPFFVDVMARKGLNAEQQQAALTKYKALQEEDMKLLENDRTLFDWCSKQTYIALANMLTGASALGIDSCPIEGFHYDKMNECLAEEGLFDPQEYAVSVAATFGYRSRDIAKKSRKGLDEVVKWVG
modifications: C-terminal His6 tag
Question: Which “conversion of thaxtomin A (1) in crude extract into compound 5” value ([2]; crude extract of Streptomyces albus-thx2, about 69% thaxtomin A) does the source give for B1 here?
Answer: completely converted

Question: What about the “conversion of thaxtomin A” value ([2]; enzyme 10 μM, thaxtomin A 2 mM, 37° C., 8 hours, GDH- or PTDH-based NADPH regeneration system) of the same molecule?
Answer: greater than 90%

Question: And the “temperature of highest enzyme activity” value ([2]; thaxtomin A as substrate)?
Answer: 37 °C
